Results: patent US20240408057A1, “Composition for preventing or treating cachexia and muscle loss” (METAFINES.CO.LTD., priority 2023, published 2024)
Like-named read-outs stand apart in the source and are kept apart here.

What was measured:
MuRF1 = MuRF1 expression in mouse muscle tissue, CT26 cachexia model; format: in vivo, Balb/c mice; details: CT26 Balb/c cachexia model, 21 days; G4 PO 200 mpk, G5 IV 100 mpk, G6 IV 200 mpk; vs vehicle control G2
From the text: (§1) The mice were sacrificed, and the skeletal muscle in the quadriceps was extracted during autopsy, and tissue was homogenized, and proteins were extracted through RIPA lysis buffer, followed by Western blot analysis.

Myogenin = Myogenin expression in mouse muscle tissue, CT26 cachexia model; format: in vivo, Balb/c mice; details: CT26 Balb/c cachexia model, 21 days
From the text: as §1

Atrogin1 = Atrogin1 expression (Western blot) in CCM-treated C2C12 myotubes; format: cell-based, mouse; details: 72 hours, compared to other experimental groups (components alone and in combination)
Protocol: A C2C12 cell line was dispensed into a 6-well plate at 4.0×10^5 cells/well, and then cultured in DMEM medium containing 10% fetal bovine serum (FBS) under 37° C. and 5% CO2 conditions for one day. When the cell density reached about 80%, the medium was replaced with a differentiation medium and the cells were cultured for additional 3 days. After confirming completion of differentiation of the cells, the cells were treated with a mixture, in which the differentiation medium and cancer-cell conditioned medium (CCM) were mixed at a 1:1 ratio, to form a control group, and simultaneously, a test group was set up by treating with the calcium salts of Preparation Examples 1 to 3 according to three predetermined concentrations.
A C2C12 cell line was dispensed into a 6-well plate at 4.0×10^5 cells/well, and then cultured in DMEM medium containing 10% fetal bovine serum (FBS) under 37° C. and 5% CO2 conditions for one day. When the cell density reached about 80%, the medium was replaced with a differentiation medium and the cells were cultured for additional 3 days.

[1] = Drug concentration in blood and pharmacokinetics factors after IV and PO administration; format: in vivo; details: SD rats
Protocol: After the administration of each individual rat, blood was collected according to the elapsed time (0 to 48 hours), centrifuged, and the concentration of the administered drug in the blood and the pharmacokinetic factors (PK parameter) of the obtained plasma were analyzed through LC/MS/MS analysis, and the results are summarized in Table 1 below.

[2] = Inhibition of weight loss in cancer cachexia animal model; format: in vivo, Balb/c mice; details: CT26 Balb/c cachexia model, G6 IV 200 mpk, p<0.05
From the text: In FIG. 49, each group represents the following.

[3] = tested on: skeletal muscle (gastrocnemius, quadriceps, and soleus); details: CT26 Balb/c cachexia model, 21 days
Protocol: A CT26 mouse colorectal cancer cell line was subcutaneously transplanted into Balb/c mice to construct a syngeneic model, and the calcium salt (Asc-Ca-DCA) of Preparation
Example 1 was administered to the mice for a total of 21 days. The mice were sacrificed, and three types of skeletal muscle (gastrocnemius, quadriceps, and soleus) were extracted at autopsy, and histopathological analysis was performed. Cross-sectional images of muscle tissue were obtained, and the muscle fiber cross-sectional area (CSA) was measured, and the results are summarized in FIGS. 50 to 52.
In FIGS. 50 to 52, each group represents the following. […] Scale bars inserted in A to F of FIGS. 50 to 52 represent a horizontal length of 100 μm.

[4] = target: T1, human recombinant cyclooxygenase COX-2 (Homo sapiens, UniProt P35354); assay: Inhibition of COX2 (Ampliflu Red spectrofluorescence); format: biochemical; details: 10 μM, compared with untreated group
T1 construct: host or cells: insect Sf21 cells
T1 sequence (P35354 18-604): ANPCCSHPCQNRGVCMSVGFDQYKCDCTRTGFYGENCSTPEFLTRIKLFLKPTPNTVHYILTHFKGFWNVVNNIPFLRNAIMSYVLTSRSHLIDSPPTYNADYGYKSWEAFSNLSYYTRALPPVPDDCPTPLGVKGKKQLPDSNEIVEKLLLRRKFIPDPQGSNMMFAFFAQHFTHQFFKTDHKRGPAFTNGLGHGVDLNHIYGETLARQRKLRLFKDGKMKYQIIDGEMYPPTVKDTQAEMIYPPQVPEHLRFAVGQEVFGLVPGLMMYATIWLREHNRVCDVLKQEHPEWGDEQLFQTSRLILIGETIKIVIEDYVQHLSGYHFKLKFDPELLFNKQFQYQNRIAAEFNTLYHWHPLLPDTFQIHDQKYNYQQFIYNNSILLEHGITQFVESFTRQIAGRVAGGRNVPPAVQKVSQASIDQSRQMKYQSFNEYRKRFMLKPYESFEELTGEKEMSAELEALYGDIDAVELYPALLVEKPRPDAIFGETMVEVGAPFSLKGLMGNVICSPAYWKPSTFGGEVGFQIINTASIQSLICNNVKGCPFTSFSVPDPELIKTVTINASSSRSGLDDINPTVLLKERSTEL
Protocol: At this time, the concentration of the calcium salt contained in the buffer solution was set to 10 μM. As an enzyme, 34 U/mL of human recombinant cyclooxygenase COX-2 expressed in insect Sf21 cells was further added to the buffer solution, and pre-reacted at 25° C. for 15 minutes. In addition, 3 μM arachidonic acid and 100 μM Ampliflu Red were added and reacted at 25° C. for 3 minutes. The amount of Resofurin produced in the reaction process was measured at 535 nm/590 nm by a spectrofluorescence method, and the inhibitory effect on COX2 was confirmed by comparing with the calcium salt untreated group.

[5] = G4 PO 200 mpk, G5 IV 100 mpk, G6 IV 200 mpk, vs vehicle control G2
[6] = PO 2,000 mg/kg (1,000 mg/kg, BID), 1 day
[7] = PO 2,000 mg/kg (1,000 mg/kg, BID), 6 days

In the case of `O=C([O-])C(Cl)Cl.O=C1OC(C(O)CO)C([O-])=C1O.[Ca+2]` (centres unmarked) [Preparation Example 1, calcium salts of ascorbic acid and dichloroacetic acid], the “expression level of MuRF1 in quadriceps” value (MuRF1) was “decrease in the expression levels”, the “expression level of Myogenin in quadriceps” value (Myogenin; [5]) was “increase in the expression levels” and the “expression of Myogenin in quadriceps” value (Myogenin; G4 to G6, compared to G3 megestrol 125 mpk oral) was “increasing the expression”. For the same compound, the “expression of Atrogin1” value (Atrogin1) was “excellent effect of inhibiting the increase of expression”, the AUClast ([1]; IV 200 mg/kg, 1 day) was 19770 ng·h/mL and the Cmax ([1]; IV 200 mg/kg, 1 day) was 30240 ng/mL. For the same compound, the Tmax ([1]; IV 200 mg/kg, 1 day) was 0.25 h, the t1/2 ([1]; IV 200 mg/kg, 1 day) was 0.27 h and the AUClast ([1]; IV 200 mg/kg, 6 days) was 7980 ng·h/mL. For the same compound, the Cmax ([1]; IV 200 mg/kg, 6 days) was 2700 ng/mL, the Tmax ([1]; IV 200 mg/kg, 6 days) was 0.00 h and the t1/2 ([1]; IV 200 mg/kg, 6 days) was 2.72 h. For the same compound, the AUClast ([1]; PO 200 mg/kg, 1 day) was 38780 ng·h/mL, the Cmax ([1]; PO 200 mg/kg, 1 day) was 23910 ng/mL and the Tmax ([1]; PO 200 mg/kg, 1 day) was 0.50 h. For the same compound, the t1/2 ([1]; PO 200 mg/kg, 1 day) was 0.59 h, the AUClast ([1]; PO 200 mg/kg, 6 days) was 34620 ng·h/mL and the Cmax ([1]; PO 200 mg/kg, 6 days) was 6260 ng/mL. It also gave a Tmax ([1]; PO 200 mg/kg, 6 days) of 0.00 h, a t1/2 ([1]; PO 200 mg/kg, 6 days) of 2.72 h and an AUClast ([1]; PO 500 mg/kg, 1 day) of 353650 ng·h/mL. For the same compound, the Cmax ([1]; PO 500 mg/kg, 1 day) was 66440 ng/mL, the Tmax ([1]; PO 500 mg/kg, 1 day) was 1.50 h and the t1/2 ([1]; PO 500 mg/kg, 1 day) was 4.14 h. The AUClast ([1]; PO 500 mg/kg, 6 days) was 147850 ng·h/mL, the Cmax ([1]; PO 500 mg/kg, 6 days) was 21280 ng/mL and the Tmax ([1]; PO 500 mg/kg, 6 days) was 0.00 h. It also gave a t1/2 ([1]; PO 500 mg/kg, 6 days) of 5.58 h, an AUClast [1, 6] of 889770 ng·h/mL and a Cmax [1, 6] of 130920 ng/mL. It also gave a Tmax [1, 6] of 1.75 h, a t1/2 [1, 6] of 5.64 h and an AUClast [1, 7] of 575250 ng·h/mL. For the same compound, the Cmax [1, 7] was 77200 ng/mL, the Tmax [1, 7] was 0.00 h and the t1/2 [1, 7] was 3.11 h. For the same compound, the “weight increase compared to G2” value ([2]; 17th day) was “about 6%”, the “weight increase compared to G2” value ([2]; 20th day) was about 13% and the “cross-sectional area of muscle tissue (gastrocnemius, quadriceps, soleus)” value [3, 5] was “increased the cross-sectional area”. The “cross-sectional area of muscle tissue (gastrocnemius, quadriceps, soleus)” value ([3]; G4 to G6, compared to G3 megestrol 125 mpk) was “level similar” and the “inhibitory effect on COX2” value [4] was 74%.
